Assay results published in patent US9910031B2, “Compositions and methods for modulating c-Rel-dependent cytokine production” (Synta Pharmaceuticals Corporation, priority 2003, dated 2018).

Tests used:
[1] = system: PU-1; assay: Western blot of PU-1 in THP-1 nuclear extracts (Ets-2 DNA element beads); type: cell-based, human
Description: (§1) Of the transcription factors that have been analyzed, two factors, ICSBP and c-Rel, seem to be affected by Compound 1/Compound 2 treatment. ICSBP binds indirectly to the Ets-2 site. The primary NFκB trans-activator for IL-12 is the c-Rel/p50 heterodimer. Other dimers (p65/p50 and p50/p50) either lack activity or have inhibitory functions. Thus, c-Rel plays a role in IL-12 transcription as a result of both activation through NFκB and its interaction with ICSBP. […] The membranes were blocked with 5% milk in TBST buffer and then incubated with anti-c-Rel, anti-p65, anti-p50, anti-ICSBP or anti-PU-1 antibody (all the antibodies were purchased from Santa Cruz) at a dilution of 1:500 for 1 h at room temperature or overnight at 4° C. The membranes were washed and incubated with Horseradish Peroxidase-conjugated anti-rabbit IgG or anti-mouse IgG (Amersham, England) at a dilution of 1:2000 at room temperature for 1 h.
The transcription factor ICSBP binds to the Ets-2 element indirectly through binding to PU-1. Nuclear extracts were bound to Ets-2 DNA element beads, the beads isolated to separate bound from free protein, and the proteins analyzed on Western blots using antibodies to either ICSBP or PU-1. […] Eluted materials were separated by 10% SDS-PAGE and detected by immunoblot analysis using anti-ICSBP or anti-PU-1 antibody.

[2] = system: p50; assay: Western blot of nuclear p50 in THP-1 cells; type: cell-based, human
Description: In order to understand this changes, the subcellular localization of NF-κB proteins was investigated using western blot analysis.
as §1
Compound 2 impairs nuclear translocation of c-Rel and p50. We examined the nuclear translocation kinetics of NF-kB family members in LPS stimulated cells treated with Compound 2. THP1 cells were stimulated with LPS in either the presence or absence of 100 nM Compound 2, and the distribution of the NF-κB Rel family members are determined by immunoblotting nuclear (n.p.) extracts collected at 5 min, 15 min, 30 min, 1 h, 3 h and 6 h post-treatment. In response to LPS stimulation, p50 translocated into the nucleus as early as 5 minutes post-stimulation and accumulates as time goes on (FIG. 7, immunoblots and FIG. 8 densitometry). […] The experiment examining p65 nuclear translocation is shown in FIG. 9 (immunoblots) and FIG. 10 (densitometry). In LPS stimulated cells, p65 translocated into the nucleus as early as 5 minutes post-stimulation and accumulated to maximum levels at 15-30 minutes post-stimulation. Treatment of LPS-stimulated cells with Compound 2 had no effect on the kinetics of p65 nuclear entry.
THP-1 cells were suspended in 20 volumes of buffer A containing 10 mM KCl, 10 mM HEPES (pH 7.9), 1 mM MgCl2, 1 mM dithiothreitol (DTT), 0.1% Nonidet p40 (NP-40), and 0.5 mM phenylmethylsulfonyl fluoride (PMSF) and homogenized and centrifuged at 10,000 rpm at 4 C for 5 min. Nuclear pellets were then suspended in buffer C containing 400 mM NaCl, 20 mM HEPES 9 pH 7.9), 15 mM MgCl2, 0.2 mM EDTA, 1 mM DTT, 25% glycerol, 1 mM PMSF, and 10 ug of leupeptin, 20 ug of pepstatin, and 10 ug/ml antipain, incubated for 30 min at 4 C, and centrifuged at 14,000 rpm for 20 min. The supernatants were dialyzed against buffer D containing 100 mM NaCl, 20 mM HEPES (pH 7.9), 20% glycerol, 1 mM PMSF, and 1 mM DTT. […]

Row | SMILES | levels of PU-1 (FIG. 6) [1] | amount of p50 protein in nuclear ([2]; 500 nM, 3 hr, relative to untreated cells) | nuclear p50 levels (FIG. 4) ([2]; THP1, IFN-γ plus LPS or IFN-γ plus SAC) | kinetics of p50 nuclear entry ([2]; THP1, LPS, 100 nM, 5 minutes to 1 hr post-stimulation) | nuclear p50 protein levels ([2]; THP1, LPS, 100 nM, 3 hours)
1 | C(=NNc1nc(OCCc2ccccn2)nc(N2CCOCC2)n1)c1c[nH]c2ccccc12 [Compound 1, N-(1H-indol-3-ylmethylene)-N′-[4-morpholin-4-yl-6-(2-pyridin-2-yl-ethoxy)-[1,3,5]triazin-2-yl]-hydrazine] | unaffected |  |  |  | 
2 | Cc1cccc(C=NNc2cc(N3CCOCC3)nc(OCCc3ccccn3)n2)c1 [Compound 2, N-(3-methyl-benzylidene)-N′-[6-morpholin-4-yl-2-(2-pyridin-2-yl-ethoxy)-pyrimidin-4-yl]-hydrazine] |  | decreased | decreased slightly | no effect | small decrease
